Measurements as given in ChEMBL document CHEMBL1130837, “8-Aminoquinolines as anticoccidials--II” (Bioorg Med Chem Lett, 1998).

How the values were obtained:
Type in all cases: functional, organism-based
Gallus gallus [1] = species on record: Gallus gallus; assay: Inhibitory activity against second generation merozoids of Eimeria tenella in chick hepatocyte assay
Gallus gallus [2] = species on record: Gallus gallus; assay: Inhibitory activity against second generation merozoids of Eimeria tenella in chick hepatocyte assay; value given as 0.2-1.0
Gallus gallus [3] = species on record: Gallus gallus; assay: Inhibitory activity against second generation merozoids of Eimeria tenella in chick hepatocyte assay in the presence of iproniazid; value given as 0.004-0.0008
Gallus gallus [4] = species on record: Gallus gallus; assay: Inhibitory activity against second generation merozoids of Eimeria tenella in chick hepatocyte assay in the absence of inhibitor; value given as 0.004-0.0008
Gallus gallus [5] = species on record: Gallus gallus; assay: Inhibitory activity against second generation merozoids of Eimeria tenella in chick hepatocyte assay in the presence of Tranylcypromine; value given as 0.004-0.0008
Gallus gallus [6] = species on record: Gallus gallus; assay: Inhibitory activity against second generation merozoids of Eimeria tenella in chick hepatocyte assay in the presence of Ketoconazole at 5 ug/ml; value given as 0.2-1.0
Gallus gallus [7] = species on record: Gallus gallus; assay: Inhibitory activity against second generation merozoids of Eimeria tenella in chick hepatocyte assay in the presence of SKF-525A at 5 ug/ml; value given as 0.2-1.0
Gallus gallus [8] = species on record: Gallus gallus; assay: Inhibitory activity against second generation merozoids of Eimeria tenella in chick hepatocyte assay in the presence of iproniazid; Value given as 1-5
Gallus gallus [9] = species on record: Gallus gallus; assay: Inhibitory activity against second generation merozoids of Eimeria tenella in chick hepatocyte assay in the presence of Tranylcypromine; Value given as 1-5
Gallus gallus [10] = species on record: Gallus gallus; assay: Inhibitory activity against second generation merozoids of Eimeria tenella in chick hepatocyte assay in the absence of inhibitor; value given as 0.2-1.0
Gallus gallus [11] = species on record: Gallus gallus; assay: Inhibitory activity against second generation merozoids of Eimeria tenella in chick hepatocyte assay in the presence of alpha-naphthoflavone at 5 ug/ml; value given as 0.2-1.0
Gallus gallus [12] = species on record: Gallus gallus; assay: Inhibitory activity against second generation merozoids of Eimeria tenella in chick hepatocyte assay in the presence of Tranylcypromine; Value given as 0.08-0.016
Gallus gallus [13] = species on record: Gallus gallus; assay: Inhibitory activity against second generation merozoids of Eimeria tenella in chick hepatocyte assay in the absence of inhibitor; Value given as 0.08-0.016
Gallus gallus [14] = species on record: Gallus gallus; assay: Inhibitory activity against second generation merozoids of Eimeria tenella in chick hepatocyte assay in the presence of iproniazid; Value given as 0.08-0.016

SMILES | IC50 (Gallus gallus [1]) [p.p.m.] | IC50 (Gallus gallus [2]) [p.p.m.] | other results
COc1cc(NCCCC/C=N/OCc2ccc([N+](=O)[O-])cc2)c2ncccc2c1 | > 1 | – | –
C=CCO/N=C/CCCCNc1cc(OC)cc2cccnc12 | – | 0.2 | –
COc1cc(NCCCCC2OCCO2)c2ncccc2c1 | – | 0.2 | –
COc1cc(NCCCC/C=N/O)c2ncccc2c1 | > 1 | – | –
CCCCCCCCCCOc1cc2c(O)c(C(=O)OCC)cnc2cc1OCC [DECOQUINATE] | – | – | IC50 (Gallus gallus [3]): 0.0008 p.p.m.; IC50 (Gallus gallus [4]): 0.0008 p.p.m.; IC50 (Gallus gallus [5]): 0.0008 p.p.m.
N#CC(c1ccc(Cl)cc1)c1c(Cl)cc(-n2ncc(=O)[nH]c2=O)cc1Cl (stereo not given) [DICLAZURIL] | – | – | IC50 (Gallus gallus [3]): 0.0008 p.p.m.; IC50 (Gallus gallus [4]): 0.0008 p.p.m.; IC50 (Gallus gallus [5]): 0.0008 p.p.m.
COc1cc(NCCCC2(C)OCCO2)c2ncccc2c1 | > 1 | – | –
COc1cc(NCCCC/C=N/OCC(=O)O)c2ncccc2c1 | > 1 | – | –
COc1cc(NCCCCCNC(C)C)c2ncccc2c1 [PENTAQUINE] | – | – | IC50 (Gallus gallus [6]): 0.2 p.p.m.; IC50 (Gallus gallus [7]): 0.2 p.p.m.; IC50 (Gallus gallus [8]): 1 p.p.m.; IC50 (Gallus gallus [9]): 1 p.p.m.; IC50 (Gallus gallus [10]): 0.2 p.p.m.; IC50 (Gallus gallus [11]): 0.2 p.p.m.
COc1cc(NCCCC2OCCO2)c2ncccc2c1 | > 1 | – | –
COc1cc(NCCCC/C=N/OC(C)(C)C)c2ncccc2c1 | – | 0.2 | –
COc1cc(NCCCCC(=O)O)c2ncccc2c1 | > 1 | – | –
CC[C@@H](C(=O)[C@@H](C)[C@@H](O)[C@H](C)[C@@H]1O[C@@H]([C@@H](CC)C(=O)O)CC[C@@H]1C)[C@H]1O[C@]2(C=C[C@@H](O)[C@]3(CC[C@@](C)([C@H]4CC[C@](O)(CC)[C@H](C)O4)O3)O2)[C@H](C)C[C@@H]1C [SALINOMYCIN] | – | – | IC50 (Gallus gallus [12]): 0.016 p.p.m.; IC50 (Gallus gallus [13]): 0.016 p.p.m.; IC50 (Gallus gallus [14]): 0.016 p.p.m.
CO/N=C/CCCCNc1cc(OC)cc2cccnc12 | – | 0.2 | –
CCO/N=C/CCCCNc1cc(OC)cc2cccnc12 | – | 0.2 | –
COc1cc(NCCCC/C=N/Oc2ccccc2)c2ncccc2c1 | – | 0.2 | –
COc1cc(NCCCC2(c3ccc(F)cc3)OCCO2)c2ncccc2c1 | – | 0.2 | –
COc1cc(NCCCCCO)c2ncccc2c1 | > 1 | – | –
COc1cc(NCCCC/C=N/OC(=O)c2ccccc2)c2ncccc2c1 | – | 0.2 | –
